System: 926638-142-R-J1-PDC complex spheroid viability
Test: Anticancer human tumor 926638-142-R-J1-PDC patient-derived endometrial carcinoma cell line growth inhibition [POLQ]
Conditions: for IC50: curve of first compound; for viability, T/C: stronger effect = lower value
How it was run: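 PDC + HUVEC + MSC complex spheroids; POLQ inhibitors ± partner drugs; top conc. at/near clinical Cmax, else 10 microM (SN-38 1 microM), half-log dilutions; 37 degrees C, 5% CO2.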

[1] = second compound 0.0316 µM, first compound 0.0316 µM
[2] = second compound 0.0316 µM, first compound 0.1 µM
[3] = second compound 0.0316 µM, first compound 0.316 µM
[4] = second compound 0.0316 µM, first compound 1 µM
[5] = second compound 0.0316 µM, first compound 3.16 µM
[6] = second compound 0.0316 µM, first compound 10 µM
[7] = second compound 0.1 µM, first compound 0.0316 µM
[8] = second compound 0.1 µM, first compound 0.1 µM
[9] = second compound 0.1 µM, first compound 0.316 µM
[10] = second compound 0.1 µM, first compound 1 µM
[11] = second compound 0.1 µM, first compound 3.16 µM
[12] = second compound 0.1 µM, first compound 10 µM
[13] = second compound 0.316 µM, first compound 0.0316 µM
[14] = second compound 0.316 µM, first compound 0.1 µM
[15] = second compound 0.316 µM, first compound 0.316 µM
[16] = second compound 0.316 µM, first compound 1 µM
[17] = second compound 0.316 µM, first compound 3.16 µM
[18] = second compound 0.316 µM, first compound 10 µM
[19] = second compound 1 µM, first compound 0.0316 µM
[20] = second compound 1 µM, first compound 0.1 µM
[21] = second compound 1 µM, first compound 0.316 µM
[22] = second compound 1 µM, first compound 1 µM
[23] = second compound 1 µM, first compound 3.16 µM
[24] = second compound 1 µM, first compound 10 µM
[25] = second compound 3.16 µM, first compound 0.0316 µM
[26] = second compound 3.16 µM, first compound 0.1 µM
[27] = second compound 3.16 µM, first compound 0.316 µM
[28] = second compound 3.16 µM, first compound 1 µM
[29] = second compound 3.16 µM, first compound 3.16 µM
[30] = second compound 3.16 µM, first compound 10 µM
[31] = second compound 10 µM, first compound 0.0316 µM
[32] = second compound 10 µM, first compound 0.1 µM
[33] = second compound 10 µM, first compound 0.316 µM
[34] = second compound 10 µM, first compound 1 µM
[35] = second compound 10 µM, first compound 3.16 µM
[36] = second compound 10 µM, first compound 10 µM
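Further: spheroids exposed to drugs for one week before readout.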
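Wherever viability, T/C is given: percent viability relative to DMSO vehicle control wells set as 100%.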

Question: What does the source list for `CCc1cc2c(N3CCc4c(cc(Cn5ccnc5)cc4-c4cn(C)nc4C(F)(F)F)C3=O)cc(C)nc2c(OC)n1` + Nc1ccc(C#CCN(C(=O)Cc2ncc(C(F)(F)F)cc2C(F)(F)F)c2ccc(F)cc2)nn1?
Answer: IC50 (second compound 0.0316 µM): 1130 nM; IC50 (second compound 0.1 µM): 426 nM; IC50 (second compound 0.316 µM): 829 nM; IC50 (second compound 1 µM): 478 nM; IC50 (second compound 3.16 µM): 728 nM; IC50 (second compound 10 µM): 503 nM; viability, T/C [1]: 86.9%; viability, T/C [2]: 66.6%; viability, T/C [3]: 65.4%; viability, T/C [4]: 43.6%; viability, T/C [5]: 51.3%; viability, T/C [6]: 33.6%; viability, T/C [7]: 90.7%; viability, T/C [8]: 66.7%; viability, T/C [9]: 52.7%; viability, T/C [10]: 40.9%; viability, T/C [11]: 42.1%; viability, T/C [12]: 28.2%; viability, T/C [13]: 83%; viability, T/C [14]: 70.4%; viability, T/C [15]: 55%; viability, T/C [16]: 47.8%; viability, T/C [17]: 44.1%; viability, T/C [18]: 27.6%; viability, T/C [19]: 69.3%; viability, T/C [20]: 69.8%; viability, T/C [21]: 56.6%; viability, T/C [22]: 37.9%; viability, T/C [23]: 43.5%; viability, T/C [24]: 30.1%; viability, T/C [25]: 76.3%; viability, T/C [26]: 58.2%; viability, T/C [27]: 57%; viability, T/C [28]: 47.2%; viability, T/C [29]: 46.9%; viability, T/C [30]: 31.6%; viability, T/C [31]: 60.2%; viability, T/C [32]: 63.8%; viability, T/C [33]: 53.8%; viability, T/C [34]: 39.6%; viability, T/C [35]: 42%; viability, T/C [36]: 27.2%

Question: Which results are given for `COc1cccc(OCCCN)c1-c1cc(Nc2cnc(C#N)cn2)n[nH]1` + Nc1ccc(C#CCN(C(=O)Cc2ncc(C(F)(F)F)cc2C(F)(F)F)c2ccc(F)cc2)nn1?
Answer: IC50 (second compound 0.0316 µM): 70.7 nM; IC50 (second compound 0.1 µM): 112 nM; IC50 (second compound 0.316 µM): 94.9 nM; IC50 (second compound 1 µM): 77.6 nM; IC50 (second compound 3.16 µM): 40.6 nM; IC50 (second compound 10 µM): 65.4 nM; viability, T/C (second compound 0.0316 µM, first compound 0.00316 µM): 115%; viability, T/C (second compound 0.0316 µM, first compound 0.01 µM): 76.4%; viability, T/C [1]: 56%; viability, T/C [2]: 47.3%; viability, T/C [3]: 49.3%; viability, T/C [4]: 32.3%; viability, T/C (second compound 0.1 µM, first compound 0.00316 µM): 115%; viability, T/C (second compound 0.1 µM, first compound 0.01 µM): 84.6%; viability, T/C [7]: 62.7%; viability, T/C [8]: 50.7%; viability, T/C [9]: 48.4%; viability, T/C [10]: 31.3%; viability, T/C (second compound 0.316 µM, first compound 0.00316 µM): 111%; viability, T/C (second compound 0.316 µM, first compound 0.01 µM): 79.2%; viability, T/C [13]: 60.4%; viability, T/C [14]: 48.3%; viability, T/C [15]: 48.2%; viability, T/C [16]: 36.7%; viability, T/C (second compound 1 µM, first compound 0.00316 µM): 121%; viability, T/C (second compound 1 µM, first compound 0.01 µM): 78.5%; viability, T/C [19]: 60.6%; viability, T/C [20]: 45.9%; viability, T/C [21]: 48.5%; viability, T/C [22]: 31.6%; viability, T/C (second compound 3.16 µM, first compound 0.00316 µM): 89.5%; viability, T/C (second compound 3.16 µM, first compound 0.01 µM): 73.4%; viability, T/C [25]: 49.5%; viability, T/C [26]: 43.4%; viability, T/C [27]: 45.2%; viability, T/C [28]: 31.7%; viability, T/C (second compound 10 µM, first compound 0.00316 µM): 86.6%; viability, T/C (second compound 10 µM, first compound 0.01 µM): 71.7%; viability, T/C [31]: 50.2%; viability, T/C [32]: 44.2%; viability, T/C [33]: 51.3%; viability, T/C [34]: 27.1%

Question: `Nc1ccn(C2OC(CO)C(O)C2(F)F)c(=O)n1` (stereo unspecified) + Nc1ccc(C#CCN(C(=O)Cc2ncc(C(F)(F)F)cc2C(F)(F)F)c2ccc(F)cc2)nn1 was tested. Which IC50 (second compound 0.0316 µM) did it give?
Answer: 1060 nM

Question: What about the IC50 (second compound 0.1 µM) of the same compound?
Answer: 682 nM

Question: What about the IC50 (second compound 0.316 µM) of the same compound?
Answer: 948 nM

Question: And the IC50 (second compound 1 µM)?
Answer: 701 nM

Question: And the IC50 (second compound 3.16 µM)?
Answer: 449 nM

Question: What about the IC50 (second compound 10 µM) of the same compound?
Answer: 2400 nM

Question: And the viability, T/C [1]?
Answer: 76.5%

Question: And the viability, T/C [2]?
Answer: 63.9%

Question: And the viability, T/C [3]?
Answer: 57%

Question: And the viability, T/C [4]?
Answer: 52.7%

Question: What about the viability, T/C [5] of the same compound?
Answer: 43.9%

Question: What about the viability, T/C [6] of the same compound?
Answer: 29.6%

Question: What about the viability, T/C [7] of the same compound?
Answer: 96.8%

Question: And the viability, T/C [8]?
Answer: 82.5%

Question: And the viability, T/C [9]?
Answer: 49.4%

Question: And the viability, T/C [10]?
Answer: 44.6%

Question: And the viability, T/C [11]?
Answer: 49.9%

Question: And the viability, T/C [12]?
Answer: 25.6%

Question: And the viability, T/C [13]?
Answer: 91.2%

Question: What about the viability, T/C [14] of the same compound?
Answer: 72%

Question: What about the viability, T/C [15] of the same compound?
Answer: 61.8%

Question: What about the viability, T/C [16] of the same compound?
Answer: 49.2%

Question: And the viability, T/C [17]?
Answer: 40.8%

Question: And the viability, T/C [18]?
Answer: 27%

Question: What about the viability, T/C [19] of the same compound?
Answer: 81.8%

Question: And the viability, T/C [20]?
Answer: 65.7%

Question: And the viability, T/C [21]?
Answer: 51.1%

Question: And the viability, T/C [22]?
Answer: 47.5%

Question: What about the viability, T/C [23] of the same compound?
Answer: 49.6%

Question: And the viability, T/C [24]?
Answer: 28.9%

Question: What about the viability, T/C [25] of the same compound?
Answer: 80%

Question: What about the viability, T/C [26] of the same compound?
Answer: 67.5%

Question: What about the viability, T/C [27] of the same compound?
Answer: 49.9%

Question: What about the viability, T/C [28] of the same compound?
Answer: 42.9%

Question: What about the viability, T/C [29] of the same compound?
Answer: 44.6%

Question: And the viability, T/C [30]?
Answer: 33.3%

Question: What about the viability, T/C [31] of the same compound?
Answer: 79.6%

Question: What about the viability, T/C [32] of the same compound?
Answer: 73.1%

Question: What about the viability, T/C [33] of the same compound?
Answer: 66.3%

Question: And the viability, T/C [34]?
Answer: 48%

Question: And the viability, T/C [35]?
Answer: 55.4%

Question: What about the viability, T/C [36] of the same compound?
Answer: 38.9%

From PubChem BioAssay AID1963826 (Molecular Pharmacology Branch, DTP, NCI, 2024)
